Residue numbers refer to the chain shown, from its start.
Columns and labels:
HCN1 mutant D140A = biological target: T1, HCN1 mutant D140A (Homo sapiens, UniProt O60741, D140A); assay: Whole-cell patch-clamp, Ih inhibition, HCN1 mutant; assay type: cell-based
T1 construct: Full-length WT or mutant human HCN1 were cloned into the pcDNA3.1 vector; expressed in transfected cells; host or cells: HeLa cells, pcDNA3.1 vector, transient lipofection
T1 sequence (O60741 1-890 D140A): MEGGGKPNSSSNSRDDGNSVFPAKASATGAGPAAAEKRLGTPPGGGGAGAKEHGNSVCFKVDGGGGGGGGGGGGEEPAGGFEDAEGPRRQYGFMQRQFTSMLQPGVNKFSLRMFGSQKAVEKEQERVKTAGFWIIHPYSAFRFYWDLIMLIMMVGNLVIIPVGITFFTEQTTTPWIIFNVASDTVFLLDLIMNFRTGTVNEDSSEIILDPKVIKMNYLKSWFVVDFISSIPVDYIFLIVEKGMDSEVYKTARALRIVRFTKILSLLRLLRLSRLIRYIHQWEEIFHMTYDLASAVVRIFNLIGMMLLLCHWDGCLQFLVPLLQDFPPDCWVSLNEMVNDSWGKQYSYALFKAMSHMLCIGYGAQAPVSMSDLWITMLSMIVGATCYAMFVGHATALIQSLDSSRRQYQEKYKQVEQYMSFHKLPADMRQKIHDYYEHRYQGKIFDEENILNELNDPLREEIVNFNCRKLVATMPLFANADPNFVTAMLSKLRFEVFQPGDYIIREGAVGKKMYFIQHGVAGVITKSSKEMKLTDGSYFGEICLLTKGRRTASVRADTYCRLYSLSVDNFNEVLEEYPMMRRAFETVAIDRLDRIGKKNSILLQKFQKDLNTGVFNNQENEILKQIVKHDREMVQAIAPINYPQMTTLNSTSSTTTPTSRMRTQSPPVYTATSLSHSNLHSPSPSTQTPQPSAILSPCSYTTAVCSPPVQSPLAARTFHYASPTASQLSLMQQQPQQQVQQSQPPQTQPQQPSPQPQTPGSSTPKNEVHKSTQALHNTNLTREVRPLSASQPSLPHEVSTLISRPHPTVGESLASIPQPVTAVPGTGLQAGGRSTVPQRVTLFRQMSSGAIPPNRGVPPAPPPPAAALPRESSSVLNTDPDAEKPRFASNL
Procedure: (§1) To elucidate the contribution of these residues to the inhibitory effect of ivabradine, we introduced mutations in ivabradine-interacting residues, converting them into alanines (Fig. 2F).
(§2) Full-length WT or mutant human HCN1 were cloned into the pcDNA3.1 vector for electrophysiological experiments. HeLa cells (from Thermo Fisher Scientific) cultured in Dulbecco's modified Eagle's medium (from Solarbio Life Science) + 10% fetal bovine serum (from ExCell Bio) at 37 °C were transiently transfected using lipofection, and whole-cell patch-clamp recordings were obtained using the Axon 200B amplifier (Molecular Devices) and clampex software (https://www.moleculardevices.com/products/axon-patch-clamp-system/acquisition-and-analysis-software/pclamp-software-suite), 36 to 48 h posttransfection. The extracellular solution contained 110 mM NaCl, 0.5 mM MgCl2, 1.8 mM CaCl2, 5 mM Hepes, 30 mM KCl, and pH was adjusted to 7.4 with NaOH, while the pipette solution contained 130 mM KCl, 10 mM NaCl, 0.5 mM MgCl2, 1 mM EGTA, 5 mM Hepes, and pH was adjusted to 7.4 with KOH. The recordings were performed at room temperature, voltage-clamp mode, and filtered at 1 kHz. The sampling frequency was 10 kHz, and the series resistance was limited to 5 MΩ. To elicit channel currents, step pulses of 3 s duration ranging from −180 mV to −30 mV were applied, followed by a step to −180 mV lasting 1.25 s. The tail currents evoked by the second step were used to determine the voltage-dependent activation curves and calculate the midpoint of activation potential (V1/2). The half maximal inhibitory concentration (IC50) of drugs was determined by recording currents at a pulse of −140 mV and analyzing current amplitudes at varying drug concentrations. The IC50 value was calculated using the Hill equation.

HCN1 mutant F143A = biological target: T2, HCN1 mutant F143A (Homo sapiens, UniProt O60741, F143A); assay: Whole-cell patch-clamp, Ih inhibition, HCN1 mutant; assay type: cell-based
T2 construct: Full-length WT or mutant human HCN1 were cloned into the pcDNA3.1 vector; expressed in transfected cells; host or cells: HeLa cells, pcDNA3.1 vector, transient lipofection
T2 sequence (O60741 1-890 F143A): T1 sequence (O60741 1-890 D140A) with A140D, F143A
Procedure: as §1, §2

COc1cc2c(cc1OC)CC(=O)N(CCCN(C)C[C@H]1Cc3cc(OC)c(OC)cc31)CC2 [ivabradine]
IC50 (HCN1 mutant D140A; D140A mutant, electrophysiological recordings, read-out: IC50 (Fig. 2F)): 27.6 µM | change in potency by mutation (HCN1 mutant D140A; D140A versus WT): dramatic decrease | IC50 (HCN1 mutant F143A; F143A mutant, electrophysiological recordings, read-out: IC50 (Fig. 2F)): 32.9 µM | change in potency by mutation (HCN1 mutant F143A; F143A versus WT): dramatic decrease
